Experimental data reported in PubChem BioAssay AID248 (DTP/NCI, 2004).
Where “and” joins values, the source holds several entries; their conditions need not be identical. Equal values may be shown once. Toxic doses and inconclusive results are not listed. No stated cut-off is given here; in the data, active means T/C of 150% or more; inactive means T/C below 125%.

Tested on: L1210 leukemia ip in BDF1 mice, survival T/C
Assay: NCI In Vivo Anticancer Drug Screen. Data for tumor model L1210 Leukemia (intraperitoneal) in B6D2F1 (BDF1) mice
Details: endpoint: mean survival time, higher = longer survival
How it was run: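 Transplanted-tumor mice were given test agent; controls received vehicle only. Survival readings from the two groups were divided (treated over control).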

[1] = dose: 100.0 mg/kg/injection, schedule: Q01DX009 (ip), vehicle: saline with Tween-80
[2] = dose: 100.0 mg/kg/injection, schedule: Q04DX003 (ip), vehicle: saline with Tween-80
[3] = dose: 200.0 mg/kg/injection, schedule: Q01DX009 (ip), vehicle: saline with Tween-80
[4] = dose: 200.0 mg/kg/injection, schedule: Q04DX003 (ip), vehicle: saline with Tween-80
[5] = dose: 400.0 mg/kg/injection, schedule: Q01DX009 (ip), vehicle: saline with Tween-80
[6] = dose: 400.0 mg/kg/injection, schedule: Q04DX003 (ip), vehicle: saline with Tween-80

Measured: T/C

O=C1C2C3CCC(O3)C2C(=O)N1Cc1ccccc1CBr (centres undefined)
inactive: dose: 100.0 mg/kg/injection, schedule: Q04DX003 (ip), vehicle: carboxymethylcellulose (CMC) 95 % of control | dose: 200.0 mg/kg/injection, schedule: Q04DX003 (ip), vehicle: carboxymethylcellulose (CMC) 98 % of control

CCCCC(=O)N(CC)CC
inactive: dose: 100.0 mg/kg/injection, schedule: Q01DX001 (ip), vehicle: acetone 97 % of control | dose: 200.0 mg/kg/injection, schedule: Q01DX001 (ip), vehicle: acetone 97 % of control

NCCc1cn(C2OC(CO)C(O)C(O)C2O)c2ccccc12 (centres undefined)
inactive: dose: 25.0 mg/kg/injection, schedule: Q01DX005 (ip), vehicle: saline 96 % of control and 106 % of control | dose: 50.0 mg/kg/injection, schedule: Q01DX005 (ip), vehicle: saline 96 % of control | dose: 100.0 mg/kg/injection, schedule: Q01DX005 (ip), vehicle: saline 109 % of control and 87 % of control

CC(C)(C)C(=O)C=C(C(F)(F)F)C(F)(F)F
inactive: dose: 6.25 mg/kg/injection, schedule: Q01DX009 (ip), vehicle: saline 106 % of control | dose: 6.25 mg/kg/injection, schedule: Q04DX003 (ip), vehicle: saline 100 % of control | dose: 12.5 mg/kg/injection, schedule: Q01DX009 (ip), vehicle: saline 106 % of control | dose: 12.5 mg/kg/injection, schedule: Q04DX003 (ip), vehicle: saline 97 % of control | dose: 25.0 mg/kg/injection, schedule: Q01DX009 (ip), vehicle: saline 108 % of control | dose: 25.0 mg/kg/injection, schedule: Q04DX003 (ip), vehicle: saline 105 % of control | dose: 50.0 mg/kg/injection, schedule: Q04DX003 (ip), vehicle: saline 96 % of control and 105 % of control

CC(C)C/C=N\N=C(N)N
inactive: dose: 15.0 mg/kg/injection, schedule: Q01DX Z (ip), vehicle: saline 103 % of control | dose: 30.0 mg/kg/injection, schedule: Q01DX Z (ip), vehicle: saline 113 % of control | dose: 60.0 mg/kg/injection, schedule: Q01DX Z (ip), vehicle: saline 104 % of control and 90 % of control | dose: 60.0 mg/kg/injection, schedule: Q01DX Z (sc), vehicle: saline 117 % of control | dose: 120.0 mg/kg/injection, schedule: Q01DX Z (ip), vehicle: saline 103 % of control | dose: 120.0 mg/kg/injection, schedule: Q01DX Z (sc), vehicle: saline 110 % of control

CCCCN(CCCC)CCCCO
inactive: dose: 50.0 mg/kg/injection, schedule: Q01DX009 (ip), vehicle: saline with Tween-80 116 % of control | [1] 101 % of control | [2] 102 % of control | [3] 101 % of control | [4] 96 % of control

Cc1ccc2ccc3ccc(C)nc3c2n1
inactive: dose: 12.5 mg/kg/injection, schedule: Q04DX003 (ip), vehicle: Klucel (hydroxypropylcellulose) (HPC) 99 % of control | dose: 25.0 mg/kg/injection, schedule: Q04DX003 (ip), vehicle: Klucel (hydroxypropylcellulose) (HPC) 97 % of control | dose: 50.0 mg/kg/injection, schedule: Q04DX003 (ip), vehicle: Klucel (hydroxypropylcellulose) (HPC) 101 % of control

CSc1ccc(NC(=O)OCCOc2ccccc2)cc1
inactive: dose: 100.0 mg/kg/injection, schedule: Q01DX001 (ip), vehicle: saline with Tween-80 94 % of control | [1] 96 % of control and 89 % of control | dose: 100.0 mg/kg/injection, schedule: Q04DX002 (ip), vehicle: saline with Tween-80 99 % of control | [2] 100 % of control | dose: 200.0 mg/kg/injection, schedule: Q01DX001 (ip), vehicle: saline with Tween-80 94 % of control | [3] 97 % of control and 89 % of control | dose: 200.0 mg/kg/injection, schedule: Q04DX002 (ip), vehicle: saline with Tween-80 108 % of control | [4] 102 % of control | dose: 400.0 mg/kg/injection, schedule: Q01DX001 (ip), vehicle: saline with Tween-80 110 % of control | [5] 94 % of control and 107 % of control | dose: 400.0 mg/kg/injection, schedule: Q04DX002 (ip), vehicle: saline with Tween-80 89 % of control | [6] 102 % of control

CCCCCCOC(=O)C1(C)OC1c1ccccc1 (centres undefined)
inactive: dose: 100.0 mg/kg/injection, schedule: Q04DX002 (ip), vehicle: saline 112 % of control | dose: 200.0 mg/kg/injection, schedule: Q04DX002 (ip), vehicle: saline 104 % of control | dose: 400.0 mg/kg/injection, schedule: Q04DX002 (ip), vehicle: saline 93 % of control

S=C(N/N=C/c1ccc(Cl)cc1Cl)Nc1cccc2cccnc12
inactive: dose: 5.0 mg/kg/injection, schedule: Q01DX001 (ip), vehicle: saline 96 % of control | dose: 10.0 mg/kg/injection, schedule: Q01DX001 (ip), vehicle: saline 96 % of control | dose: 20.0 mg/kg/injection, schedule: Q01DX001 (ip), vehicle: saline 86 % of control | dose: 40.0 mg/kg/injection, schedule: Q01DX001 (ip), vehicle: saline 98 % of control | dose: 80.0 mg/kg/injection, schedule: Q01DX001 (ip), vehicle: saline 90 % of control

CC1(C)CC(OP(OC2CC(C)(C)N(O)C(C)(C)C2)OC2CC(C)(C)N(O)C(C)(C)C2)CC(C)(C)N1O
inactive: dose: 100.0 mg/kg/injection, schedule: Q01DX001 (ip), vehicle: water 100 % of control | dose: 200.0 mg/kg/injection, schedule: Q01DX001 (ip), vehicle: water 94 % of control | dose: 400.0 mg/kg/injection, schedule: Q01DX001 (ip), vehicle: water 94 % of control

O=[N+]([O-])c1cc2c(cc1Br)C1C(C3C2C(Cl)(Cl)C(Cl)=C(Cl)C3(Cl)Cl)C(Cl)(Cl)C(Cl)=C(Cl)C1(Cl)Cl (centres undefined)
inactive: dose: 100.0 mg/kg/injection, schedule: Q01DX001 (ip), vehicle: saline 95 % of control | dose: 200.0 mg/kg/injection, schedule: Q01DX001 (ip), vehicle: saline 100 % of control | dose: 400.0 mg/kg/injection, schedule: Q01DX001 (ip), vehicle: saline 94 % of control

CCCCCCCCCCCC(=O)NC(=S)Nc1ccc(C)c(Cl)c1
inactive: dose: 100.0 mg/kg/injection, schedule: Q04DX003 (ip), vehicle: Klucel (hydroxypropylcellulose) (HPC) 89 % of control | dose: 200.0 mg/kg/injection, schedule: Q04DX003 (ip), vehicle: Klucel (hydroxypropylcellulose) (HPC) 95 % of control | dose: 400.0 mg/kg/injection, schedule: Q04DX003 (ip), vehicle: Klucel (hydroxypropylcellulose) (HPC) 90 % of control

O=C(c1ccc(F)cc1)c1ccc([N+](=O)[O-])cc1
inactive: [2] 97 % of control | [4] 97 % of control | [6] 98 % of control

CC(C)CCC[C@@H](C)[C@H]1CC[C@H]2[C@@H]3CC[C@H]4C[C@H](NC(=O)N(CCCl)N=O)CC[C@]4(C)[C@H]3CC[C@]12C
inactive: dose: 10.0 mg/kg/injection, schedule: Q01DX001 (ip), vehicle: other 103 % of control | dose: 23.0 mg/kg/injection, schedule: Q01DX001 (ip), vehicle: other 95 % of control | dose: 46.0 mg/kg/injection, schedule: Q01DX001 (ip), vehicle: other 104 % of control | dose: 93.0 mg/kg/injection, schedule: Q01DX001 (ip), vehicle: other 103 % of control | dose: 187.0 mg/kg/injection, schedule: Q01DX001 (ip), vehicle: other 103 % of control | dose: 375.0 mg/kg/injection, schedule: Q01DX001 (ip), vehicle: other 110 % of control | dose: 500.0 mg/kg/injection, schedule: Q01DX001 (ip), vehicle: other 104 % of control | dose: 1000.0 mg/kg/injection, schedule: Q01DX001 (ip), vehicle: other 119 % of control

Brc1n[nH]c(Br)n1
inactive: [1] 93 % of control | [3] 93 % of control | [5] 91 % of control

O=C1N/C(=N/OCc2ccc([N+](=O)[O-])cc2)CC(NOCc2ccc([N+](=O)[O-])cc2)N1 (centres undefined)
inactive: [2] 91 % of control | [4] 101 % of control | [6] 89 % of control
